According to patent US4112228A, “7-(D-α-Hydroxy-2-arylacetamido)-3-(2-carboxyalkyl-2,3-dihydro-s-tri azolo-[4,3-b]pyridazin-3-on-6-ylthiomethyl)-3-cephem-4-carboxylic acids and derivatives” (priority 1977, dated 1978):
In brackets after ≈: the same amount, converted by molar mass.

Columns and labels:
Pr. morganii = assay: MIC by Steers' agar dilution method; settings: Morganella morganii
[1] = Nephrotoxicity test in rabbits; settings: 100 mg./kg. (iv)
Pr. rettgeri = assay: MIC by Steers' agar dilution method; settings: Providencia rettgeri
S. aureus = assay: MIC by Steers' agar dilution method; assay type: cell-based; settings: Staphylococcus aureus

O=C(O)Cn1nc2ccc(SCC3=C(C(=O)O)N4C(=O)C(NC(=O)[C@H](O)c5ccccc5)[C@H]4SC3)nn2c1=O (stereo partly drawn) [BB-S488, 7-(D-Mandelamido)-3-(2-carboxymethyl-2,3-dihydro-s-triazolo[4,3-b]pyridazin-3-on-6-ylthiomethyl)-3-cephem-4-carboxylic Acid]
MIC (Pr. morganii; Pg-3 A9636, MHA, Table 3): 0.8 µg/mL (≈ 1.4 µM) | MIC (Pr. morganii; Pg-5 A15166, MHA, Table 3): 0.1 µg/mL (≈ 0.175 µM) | MIC (Pr. morganii; Pg-6 A20455 (β-lactamase), HIA, Table 4): 0.8 µg/mL (≈ 1.4 µM) | MIC (Pr. morganii; Pg-6 A20455 (β-lactamase), MHA, Table 4): 0.4 µg/mL (≈ 0.699 µM) | MIC (Pr. morganii; Pg-6 A20455 (β-lactamase), NA, Table 4): 0.4 µg/mL (≈ 0.699 µM) | MIC (Pr. morganii; Pg-6 A20455, MHA, Table 3): 0.4 µg/mL (≈ 0.699 µM) | MIC (Pr. morganii; Pg-7 A20457, MHA, Table 3): 0.2 µg/mL (≈ 0.349 µM) | MIC (Pr. morganii; Pg-8 A15153, MHA, Table 3): 0.1 µg/mL (≈ 0.175 µM) | MIC (Pr. morganii; Pg-9 A15149, MHA, Table 3): 0.8 µg/mL (≈ 1.4 µM) | MIC (Pr. morganii; strain not given (1st of 2), MHA, Example 10): > 100 µg/mL | MIC (Pr. morganii; strain not named (2nd of 2), MHA, Example 10): 0.2 µg/mL (≈ 0.349 µM) | Nephrotoxicity [1]: No nephrotoxic sign was seen | MIC (Pr. rettgeri; A15167, MHA, Table 1): 0.05 µg/mL (≈ 0.0873 µM) | MIC (Pr. rettgeri; MHA, Example 10): 0.2 µg/mL (≈ 0.349 µM) | MIC (Pr. rettgeri; Pr-1 A15167, HIA, Table 4): 0.1 µg/mL (≈ 0.175 µM) | MIC (Pr. rettgeri; Pr-1 A15167, MHA, Table 3): 0.1 µg/mL (≈ 0.175 µM) | MIC (Pr. rettgeri; Pr-1 A15167, MHA, Table 4): 0.05 µg/mL (≈ 0.0873 µM) | MIC (Pr. rettgeri; Pr-1 A15167, NA, Table 4): 0.4 µg/mL (≈ 0.699 µM) | MIC (Pr. rettgeri; Pr-2 A9637, MHA, Table 3): 0.1 µg/mL (≈ 0.175 µM) | MIC (Pr. rettgeri; Pr-4 A20645, MHA, Table 3): 0.1 µg/mL (≈ 0.175 µM) | MIC (Pr. rettgeri; Pr-5 A20915, MHA, Table 3): 0.2 µg/mL (≈ 0.349 µM) | MIC (Pr. rettgeri; Pr-6 A20920, MHA, Table 3): 0.1 µg/mL (≈ 0.175 µM) | MIC (S. aureus; A9497, MHA, Table 1): 0.1 µg/mL (≈ 0.175 µM) | MIC (S. aureus; BX-1633, MHA, Example 10): 3.1 µg/mL (≈ 5.41 µM) | MIC (S. aureus; BX-1633 A9606, MHA, Table 1): 0.4 µg/mL (≈ 0.699 µM) | MIC (S. aureus; Sa-2 Smith A9537, HIA, Table 4): 0.8 µg/mL (≈ 1.4 µM) | MIC (S. aureus; Sa-2 Smith A9537, MHA, Table 2): 0.4 µg/mL (≈ 0.699 µM) | MIC (S. aureus; Sa-2 Smith A9537, MHA, Table 4): 0.8 µg/mL (≈ 1.4 µM) | MIC (S. aureus; Sa-2 Smith A9537, NA, Table 4): 0.8 µg/mL (≈ 1.4 µM) | MIC (S. aureus; Sa-3 No. 193, MHA, Table 2): 0.8 µg/mL (≈ 1.4 µM) | MIC (S. aureus; Sa-8, MHA, Table 2): 0.4 µg/mL (≈ 0.699 µM) | MIC (S. aureus; Sa-9 No. 193, MHA, Table 2): 0.8 µg/mL (≈ 1.4 µM) | MIC (S. aureus; Sa-10 A20239, MHA, Table 2): 1.6 µg/mL (≈ 2.79 µM) | MIC (S. aureus; Sa-11 BX-1633 A9606 (β-lactamase), HIA, Table 4): 1.6 µg/mL (≈ 2.79 µM) | MIC (S. aureus; Sa-11 BX-1633 A9606 (β-lactamase), MHA, Table 4): 0.8 µg/mL (≈ 1.4 µM) | MIC (S. aureus; Sa-11 BX-1633 A9606 (β-lactamase), NA, Table 4): 3.1 µg/mL (≈ 5.41 µM) | MIC (S. aureus; Sa-11 BX-1633 A9606, MHA, Table 2): 0.4 µg/mL (≈ 0.699 µM) | MIC (S. aureus; Sa-12 A9497, MHA, Table 2): 0.2 µg/mL (≈ 0.349 µM) | MIC (S. aureus; Sa-29 No. 193, MHA, Table 2): 1.6 µg/mL (≈ 2.79 µM) | MIC (S. aureus; Sa-33 Terajima, MHA, Table 2): 0.0125 µg/mL (≈ 0.0218 µM) | MIC (S. aureus; Sa-34 A15092, MHA, Table 2): 0.8 µg/mL (≈ 1.4 µM) | MIC (S. aureus; Sa-35 A15094, MHA, Table 2): 0.8 µg/mL (≈ 1.4 µM) | MIC (S. aureus; Sa-36 Russell, MHA, Table 2): 0.8 µg/mL (≈ 1.4 µM) | MIC (S. aureus; Sa-37 A9524, MHA, Table 2): 1.6 µg/mL (≈ 2.79 µM) | MIC (S. aureus; Sa-38 A9534, MHA, Table 2): 0.4 µg/mL (≈ 0.699 µM) | MIC (S. aureus; Sa-39 A9578, MHA, Table 2): 0.8 µg/mL (≈ 1.4 µM) | MIC (S. aureus; Sa-40 A9601, MHA, Table 2): 0.8 µg/mL (≈ 1.4 µM) | MIC (S. aureus; Sa-41 A9602, MHA, Table 2): 0.8 µg/mL (≈ 1.4 µM) | MIC (S. aureus; Sa-44 A15097, HIA, Table 4): > 100 µg/mL | MIC (S. aureus; Sa-44 A15097, MHA, Table 2): 25 µg/mL (≈ 43.7 µM) | MIC (S. aureus; Sa-44 A15097, MHA, Table 4): 100 µg/mL (≈ 175 µM) | MIC (S. aureus; Sa-44 A15097, NA, Table 4): > 100 µg/mL | MIC (S. aureus; Sa-56 A9630, MHA, Table 2): 3.1 µg/mL (≈ 5.41 µM) | MIC (S. aureus; Sa-57 A9748, MHA, Table 2): 25 µg/mL (≈ 43.7 µM) | MIC (S. aureus; Sa-58 A15033, MHA, Table 2): 12.5 µg/mL (≈ 21.8 µM) | MIC (S. aureus; Sa-59 A15096, MHA, Table 2): 100 µg/mL (≈ 175 µM) | MIC (S. aureus; Sa-60 A20604, MHA, Table 2): 50 µg/mL (≈ 87.3 µM) | MIC (S. aureus; Sa-61 A20605, MHA, Table 2): 100 µg/mL (≈ 175 µM) | MIC (S. aureus; Sa-62 A20606, MHA, Table 2): 3.1 µg/mL (≈ 5.41 µM) | MIC (S. aureus; Sa-63 A20607, MHA, Table 2): > 100 µg/mL | MIC (S. aureus; Sa-64 A20608, MHA, Table 2): 100 µg/mL (≈ 175 µM) | MIC (S. aureus; Sa-65 A20609, MHA, Table 2): 100 µg/mL (≈ 175 µM) | MIC (S. aureus; Sa-66 A20610, MHA, Table 2): 100 µg/mL (≈ 175 µM) | MIC (S. aureus; Sa-67 A20611, MHA, Table 2): 100 µg/mL (≈ 175 µM) | MIC (S. aureus; Sa-68 A20612, MHA, Table 2): 1.6 µg/mL (≈ 2.79 µM) | MIC (S. aureus; Sa-69 A20613, MHA, Table 2): 100 µg/mL (≈ 175 µM) | MIC (S. aureus; Smith A9537, MHA, Table 1): 0.2 µg/mL (≈ 0.349 µM) | MIC (S. aureus; Smith, MHA, Example 10): 0.8 µg/mL (≈ 1.4 µM) | MIC (S. aureus; strain not named, MHA, Example 10): 0.4 µg/mL (≈ 0.699 µM)
